Calls of active or inactive are those of the source.
Columns and labels:
[1] = biological target: Phospholipase A2 (Homo sapiens, UniProt P04054); type: functional;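 note: confirmatory dose-response counterscreen on phospholipase A2, testing hits that came from an ultra-high-throughput screen for ATG4B inhibitors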
[2] = biological target: T1, Caspase-7 (Homo sapiens, UniProt P55210); assay: human caspase-7 inhibitors, dose response, selectivity assay for caspase-6 inhibitor project, biochemical, DEVD-R110 fluorescence, cherry-pick (AID 743295)
T1 sequence (P55210 whole entry): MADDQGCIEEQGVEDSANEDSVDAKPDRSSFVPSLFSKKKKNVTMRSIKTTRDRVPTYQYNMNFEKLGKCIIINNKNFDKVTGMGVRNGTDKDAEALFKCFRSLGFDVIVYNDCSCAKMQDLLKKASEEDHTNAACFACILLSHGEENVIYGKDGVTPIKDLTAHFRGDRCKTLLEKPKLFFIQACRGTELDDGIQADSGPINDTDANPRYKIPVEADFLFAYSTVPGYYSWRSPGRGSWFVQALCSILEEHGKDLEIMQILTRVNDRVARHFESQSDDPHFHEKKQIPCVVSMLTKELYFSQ

[3] = biological target: T2, Protein RecA (Mycobacterium tuberculosis, UniProt P9WHJ3); assay: Fluorescence Cell-Free Homogeneous Dose Retest to Identify Inhibitors of RecA-Intein Splicing Activity. [Related pubchem assays (depositor defined):AID2097, AID2223, AID489010, AID492950]; type: functional
T2 sequence (P9WHJ3 whole entry): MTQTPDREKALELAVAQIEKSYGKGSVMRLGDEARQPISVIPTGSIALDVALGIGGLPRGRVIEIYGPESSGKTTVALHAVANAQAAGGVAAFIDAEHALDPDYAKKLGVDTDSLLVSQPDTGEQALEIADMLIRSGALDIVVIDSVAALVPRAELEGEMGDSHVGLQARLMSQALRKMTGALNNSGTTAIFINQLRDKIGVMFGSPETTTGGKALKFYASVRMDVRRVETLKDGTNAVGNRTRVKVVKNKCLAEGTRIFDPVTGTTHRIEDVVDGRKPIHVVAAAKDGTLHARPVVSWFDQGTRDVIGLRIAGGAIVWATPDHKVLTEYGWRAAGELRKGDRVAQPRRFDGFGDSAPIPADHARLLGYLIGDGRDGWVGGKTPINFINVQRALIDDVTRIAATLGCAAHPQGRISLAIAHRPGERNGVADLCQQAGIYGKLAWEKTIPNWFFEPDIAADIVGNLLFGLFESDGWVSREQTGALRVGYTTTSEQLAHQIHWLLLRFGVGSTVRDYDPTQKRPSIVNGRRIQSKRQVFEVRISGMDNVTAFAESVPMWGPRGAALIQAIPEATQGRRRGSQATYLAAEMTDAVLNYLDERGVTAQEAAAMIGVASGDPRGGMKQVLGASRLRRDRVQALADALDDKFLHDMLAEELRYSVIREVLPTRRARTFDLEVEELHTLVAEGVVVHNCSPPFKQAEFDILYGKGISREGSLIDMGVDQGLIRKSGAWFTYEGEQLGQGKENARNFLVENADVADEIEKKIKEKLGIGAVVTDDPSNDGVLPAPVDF

[4] = biological target: T3, Caspase-6 (Homo sapiens, UniProt P55212); assay: human caspase-6 inhibitors, dose response, biochemical, VEID-R110 fluorescence, cherry-pick (AID 720632)
T3 sequence (P55212 whole entry): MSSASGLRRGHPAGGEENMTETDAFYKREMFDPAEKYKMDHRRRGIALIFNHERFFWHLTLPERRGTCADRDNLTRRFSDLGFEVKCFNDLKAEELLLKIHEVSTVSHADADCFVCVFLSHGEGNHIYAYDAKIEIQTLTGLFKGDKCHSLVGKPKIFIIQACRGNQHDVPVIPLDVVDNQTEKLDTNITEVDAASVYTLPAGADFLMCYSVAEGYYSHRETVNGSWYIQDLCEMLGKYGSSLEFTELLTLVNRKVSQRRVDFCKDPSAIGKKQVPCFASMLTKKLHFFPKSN

[5] = biological target: T4, Caspase-3 (Homo sapiens, UniProt P42574); assay: caspase-3 enzyme inhibitors, selectivity check, dose response, selectivity assay for caspase-6 allosteric inhibitor project, biochemical, fluorescence, cherry-picked samples (AID 743291)
T4 sequence (P42574 whole entry): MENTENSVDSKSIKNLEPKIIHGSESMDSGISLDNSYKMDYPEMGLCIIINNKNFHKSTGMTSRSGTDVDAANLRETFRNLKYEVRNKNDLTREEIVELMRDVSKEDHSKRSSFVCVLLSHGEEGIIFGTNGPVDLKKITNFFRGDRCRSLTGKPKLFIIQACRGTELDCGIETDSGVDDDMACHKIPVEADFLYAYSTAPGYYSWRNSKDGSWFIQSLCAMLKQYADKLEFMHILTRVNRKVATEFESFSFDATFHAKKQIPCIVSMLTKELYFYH

[6] = test system: INS1; assay: beta cell apoptosis inhibitors, cytokine rescue, dose response, luminescence, retest (AID 449756); type: functional, cell-based; details: Rattus norvegicus;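 note: cell death triggered by IL-1 beta plus TNF-alpha plus IFN-gamma mixture; protective hits raise ATP signal compared with cytokine alone wells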
[7] = Intein inhibitors as potential Tuberculosis drugs, a cytotoxicity screen. [Related pubchem assays (depositor defined):AID2221, AID2223, AID434968, AID435010, AID449749, AID449750, AID489010]; type: functional
[8] = cytotoxicity in HEK-293T cells, dose response, cytotoxicity control for TCR NF-kB inhibitor project, luminescence, T-cell screen hits (AID 489026); type: functional, cell-based;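 note: cells exposed to compound about 14 hours before the viability readout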
[9] = biological target: T5, Cysteine protease ATG4B (Homo sapiens, UniProt Q9Y4P1); type: functional;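 note: Fluorescence-based dose-response confirmation assay measuring inhibition of ATG4B activity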
T5 sequence (Q9Y4P1 whole entry): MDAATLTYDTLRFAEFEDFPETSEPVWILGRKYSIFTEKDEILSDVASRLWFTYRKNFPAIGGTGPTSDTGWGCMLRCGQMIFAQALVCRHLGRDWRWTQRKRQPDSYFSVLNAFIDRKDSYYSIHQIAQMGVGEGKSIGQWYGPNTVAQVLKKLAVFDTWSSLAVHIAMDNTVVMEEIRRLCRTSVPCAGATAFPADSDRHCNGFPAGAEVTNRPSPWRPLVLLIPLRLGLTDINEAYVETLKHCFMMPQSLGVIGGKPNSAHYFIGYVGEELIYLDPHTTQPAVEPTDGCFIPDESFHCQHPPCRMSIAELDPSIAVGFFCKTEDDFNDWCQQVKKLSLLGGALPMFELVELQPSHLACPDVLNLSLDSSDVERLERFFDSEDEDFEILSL

[10] = C. albicans growth with fluconazole, confirmation, fluorescence, retest (AID 2467); type: functional, cell-based
[11] = NIH-3T3 fibroblast cytotoxicity, dose response, cytotoxicity control, cell-based, fluorescence, Alamar Blue, secondary assay (AID 2327); type: functional;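 note: NIH-3T3 mouse fibroblasts cultured with fluconazole at 8 µg/mL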
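Throughout, for CC50: cells exposed to compound for 72 hours before luminescence readout.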

Chain of Phospholipase A2 (P04054 whole entry): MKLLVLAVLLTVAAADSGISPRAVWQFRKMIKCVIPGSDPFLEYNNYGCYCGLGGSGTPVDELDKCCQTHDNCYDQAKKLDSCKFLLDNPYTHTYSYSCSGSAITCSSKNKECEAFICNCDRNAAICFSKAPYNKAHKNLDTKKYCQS

SMILES | IC50 [1] | AC50 [2] | EC50 [3] | AC50 [4] | AC50 [5] | AC50 [6] | CC50 [7] | IC50 [8] | IC50 [9] | EC50 [10] | EC50 [11]
Cn1nc(-c2ccccn2)nc2c(=O)n(C)c(=O)nc1-2 | > 80 µM (inactive) | 0.371 µM (active) | 0.0191 µM (active) | 0.219 µM (active) | 6.73 µM (active) | 1.92 µM (active) | > 40 µM (active) | 4.26 µM (active) | 2.07 µM (active) |  | 
CCC(=O)NC(c1ccc(OC)cc1)c1cc(Cl)c2cccnc2c1O (configuration not stated) |  |  |  |  |  | 1.08 µM (active) |  |  |  | 0.769 µM (active) | 12.6 µM (inconclusive)
CCCCCCCCCCn1c2c(c(=N)c3c1CCC3)CCC2 |  |  | 1.83 µM (active) |  |  |  | 8.51 µM (active) | 38.4 µM (inactive) |  | 0.779 µM (active) | 26.1 µM (active)
COc1ccc(NS(=O)(=O)c2ccc3c(c2)[C@H]2C=CC[C@H]2[C@@H](c2ccc(C(=O)O)cc2)N3)cc1 | 6.87 µM (active) | > 70 µM (inactive) |  | 4.43 µM (active) | 18.2 µM (active) |  |  |  | 5.28 µM (active) |  | 
